Laboratory results reported in patent US11911480B2, “Self-emulsifying composition of ω-3 fatty acid” (priority 2015, dated 2024).
Read-outs that look alike come from different tables or passages of the source.

Tests used:
[1] = human, in vivo, po, 3600 mg
Protocol: The capsule having the self-emulsifying composition of the present invention containing 80% by weight of EPA-E as its content was orally administered to human (12 cases, healthy adult males of 20 to 40 years old with a body weight of 55.0 to 77.0 kg and a BMI of 18.5 or more but less than 25.0) under fasting conditions to evaluate the change of blood EPA concentration. The self-emulsifying composition in an amount corresponding to 1800 mg of EPA-E was orally administered in single dose to each human who had been fasted since 10 hours or more before the administration by using 200 mL of water in the morning under fasting. The blood was collected 0.5, 1, 1.5, 2, 3, 4, 5, 6, 7, 8, 9, 10, 12, 15, 18, 24, 48 and 72 hours after the administration. […] After having stored the resulting plasma at a temperature not higher than −20° C. in frozen state, concentration of the EPA in the plasma was measured by LC/MS/MS (method in which a sample is isolated by liquid chromatography, then subjected to mass spectrometry to conduct separation and measurement thereon). […]
This test was conducted on 6 humans. […] In the calculation of each parameter, correction was made by subtracting the blood EPA concentration before the administration from the measured blood concentration.

[2] = human, in vivo, po, 1800 mg
Protocol: The capsule having the self-emulsifying composition of the present invention containing 80% by weight of EPA-E as its content was orally administered to human (12 cases, healthy adult males of 20 to 40 years old with a body weight of 55.0 to 77.0 kg and a BMI of 18.5 or more but less than 25.0) under fasting conditions to evaluate the change of blood EPA concentration. The self-emulsifying composition in an amount corresponding to 1800 mg of EPA-E was orally administered in single dose to each human who had been fasted since 10 hours or more before the administration by using 200 mL of water in the morning under fasting. The blood was collected 0.5, 1, 1.5, 2, 3, 4, 5, 6, 7, 8, 9, 10, 12, 15, 18, 24, 48 and 72 hours after the administration. Immediately after the collection, the blood was cooled on ice, and centrifuged at 2000×g at 4° C. for 10 minutes to separately collect the plasma. After having stored the resulting plasma at a temperature not higher than −20° C. in frozen state, concentration of the EPA in the plasma was measured by LC/MS/MS (method in which a sample is isolated by liquid chromatography, then subjected to mass spectrometry to conduct separation and measurement thereon). […]
In the calculation of each parameter, correction was made by subtracting the blood EPA concentration before the administration from the measured blood concentration.

- Cmax [1]: 3600 ng/mL
- Cmax [2]: 4600 ng/mL
SMILES: CC/C=C\C/C=C\C/C=C\C/C=C\C/C=C\CCCC(=O)OCC [EPA-E stock solution, Ethyl eicosapentaenoate]
